Article PMC6843786, “Temporin-SHa and Its Analogs as Potential Candidates for the Treatment of Helicobacter pylori” (Biomolecules, 2019)
Non-standard residues stand in square brackets, D forms with d. Residues, ends and D or L forms follow the SMILES beside them.

Test system: H. pylori (ATCC 43504)
Assay: Membrane permeabilization assay (propidium iodide)
Details: propidium iodide, CTAB 300 µM = 100%
Description: Bacterial membrane permeabilization was evaluated using the cell-impermeable DNA/RNA probe propidium iodide as previously explained. Logarithmic growing bacterial suspension of H. pylori (ATCC 43504) was prepared from overnight bacterial suspension after 1:10 dilution. After 3 h incubation at 37 °C, in microaerophilic condition, bacterial suspensions were centrifuged for 5 min at 3000× g. Cell pellets were then resuspended in sterile PBS at about […]. Propidium iodide (solution at 1 mg/mL, Sigma Aldrich) was then added to the suspension at a final concentration of 60 µM. 100 µL of this suspension were then transferred into 96-well black plates and were exposed to increasing concentrations of peptides obtained by serial dilution (from zero to 100 µM, 1:2 dilution). […] Kinetics of fluorescence variations (excitation at 530 nm and emission at 590 nm) were then recorded over 240 min of incubation at 37 °C in micro-aerobic condition using a microplate reader (Biotek, Synergy Mx). The effect of the peptides on the membrane integrity was expressed in percentage of permeabilization, CTAB at 300 µM being used as positive control giving 100% permeabilization. All experiments were done in triplicate.

CC[C@H](C)[C@H](NC(=O)CNC(=O)[C@H](CO)NC(=O)[C@H](CC(C)C)NC(=O)[C@@H](N)Cc1ccccc1)C(=O)N[C@H](C(=O)NCC(=O)N[C@@H](CCSC)C(=O)N[C@@H](CC(C)C)C(=O)N[C@H](C)C(=O)N[C@@H](CCCCN)C(=O)N[C@@H](CC(C)C)C(=O)N[C@@H](Cc1ccccc1)C(N)=O)C(C)C [NST1, H-Phe^1-Leu^2-Ser^3-Gly^4-Ile^5-Val^6-Gly^7-Met^8-Leu^9-D-Ala^10-Lys^11-Leu^12-Phe^13-NH2] (H-FLSGIVGML[dA]KLF-NH2)
membrane permeabilization of H. pylori (ranking in words): strongest permeabilization
